Key:
A375 melanoma cells = experiment: Cell surface MHC class I, B2M and MHC class II by flow cytometry in A375 cells after interferon
Description: A representative western blot is shown. A375 cells were pre-treated with vehicle (DMSO) or 10 μM of PLX4720 60 minutes prior to the addition of IFN-γ (100 U/ml). Whole cell lysates were prepared 24 hours later and levels of phospho-ERK (Thr 202/Tyr 204) and total ERK protein were analyzed by western blot. B, A representative flow cytometry histogram is shown. A375 cells were pre-treated with vehicle (DMSO, black line, unfilled) or 10 μM PLX4720 (black dotted line) for 60 minutes prior to the addition of IFN-γ (10 U/ml). Control cells were left untreated (gray filled). Cell surface MHC class I was analyzed using flow cytometry 72 hours later using an antibody that recognizes a shared epitope on HLA-A, B and C molecules. Cells stained with an isotype control antibody are shown (black filled). C, Averaged mean fluorescence intensity (MFI) from three independent flow cytometry experiments is shown (y-axis) and treatments are indicated along the x-axis. The error bars represent the SEM. (*, p<0.05; two-tailed paired Student's t test, as compared to cells treated with IFN-γ and pre-treated with DMSO).
A representative western blot is shown. […] Cell lysates were prepared 72 hours later and levels of total ERK and phospho-ERK (Thr 202/Tyr 204) protein analyzed by western blot. […] Cell surface MHC class I (HLA-A, B, C), B2M, and MHC class II (HLA-DR) levels were analyzed 72 hours later using flow cytometry. Values represent the average mean fluorescence intensity (MFI) for three independent experiments and error bars represent the SEM. […] GAPDH levels are shown as a loading control. D, Induction of HLA-A, HLA-DR, CIITA and NLRC5 mRNA in A375 cells. […] Control cells were treated only with vehicle (DMSO). Steady state mRNA levels were measured using quantitative real-time RT-PCR 72 hours later and are expressed as fold over vehicle (DMSO) treated cells. Error bars represent SEM from at least 3 independent experiments. (*, p<0.05, **, p<0.01, 2-tailed paired Student's t test, as compared to cells treated with IFN-γ and pre-treated with DMSO)
Error bars represent the SEM. […] Flow cytometry was used to select transfected (GFP positive) and non-transfected (GFP negative) cells and MHC class I levels were measured on these two cell populations. Average values from three independent experiments are shown. MHC class I levels are expressed as the % of MHC class I on control cells (cells non-transfected using the empty vector plasmid). […] Cells stained with an isotype control antibody are shown in black filled.

[1] = test system: phospho-ERK (Thr 202/Tyr 204); experiment: ERK phosphorylation by western blot in A375 cells; assay type: cell-based; settings: 10 μM PLX4720, western blot, 24 hours
Description: A representative western blot is shown. A375 cells were pre-treated with vehicle (DMSO) or 10 μM of PLX4720 60 minutes prior to the addition of IFN-γ (100 U/ml). Whole cell lysates were prepared 24 hours later and levels of phospho-ERK (Thr 202/Tyr 204) and total ERK protein were analyzed by western blot. […] The error bars represent the SEM.
A representative western blot is shown. […] Cell lysates were prepared 72 hours later and levels of total ERK and phospho-ERK (Thr 202/Tyr 204) protein analyzed by western blot. […] GAPDH levels are shown as a loading control. […] Control cells were treated only with vehicle (DMSO).

SKMEL-3 cells = experiment: Cell surface MHC by flow cytometry in SKMEL-3 cells after IFN-γ; settings: SKMEL3 cells (heterozygous for BRAFV600E), vemurafenib 0.5 μM, 72 hours
Description: (§1) Cell surface MHC class I (HLA-A, B and C, top panels) and MHC class II (HLA-DR, lower panels) levels were measured 72 hours later using flow cytometry. […] Fold induction of cell surface MHC class I was calculated by dividing averaged MFI values for cells treated as indicated along the x-axis by averaged MFI values of cells treated with vehicle (DMSO) alone. Fold inductions for heterozygous cell lines (MALME-3M, SKMEL-3, and SKMEL-5) were averaged together (gray bars) as were the fold inductions for three homozygous (white bars) cell lines (A375, HT-144, and SKMEL-28). […] The DMSO-treated cells (gray diamonds) from part A are compared to those treated with BEZ235 (0.5 μM, black squares). MHC class I and class II levels were assessed as in part A.

CIITA mRNA = settings: SKMEL-28 cells, vemurafenib 0.5 μM, IFN-γ 20 U/ml
Description: as §1

MALME-3M cells = experiment: Cell surface MHC by flow cytometry in MALME-3M cells after IFN-γ; settings: MALME-3M cells (heterozygous for BRAFV600E), vemurafenib 0.5 μM, 72 hours
Description: as §1

SKMEL-5 cells = experiment: Cell surface MHC by flow cytometry in SKMEL-5 cells after IFN-γ; settings: SKMEL5 cells (heterozygous for BRAFV600E), vemurafenib 0.5 μM, 72 hours
Description: as §1

melanoma cell lines = experiment: MHC induction by IFN-γ with PI3K/mTOR inhibitor in melanoma cell lines, flow cytometry; settings: BEZ235 0.5 μM, MHC class I and class II, melanoma cell lines of FIG. 4
Description: Fold induction of cell surface MHC class I was calculated by dividing averaged MFI values for cells treated as indicated along the x-axis by averaged MFI values of cells treated with vehicle (DMSO) alone. […] MHC class I and class II levels were assessed as in part A.
BEZ235 a dual PI3K/mammalian target of rapamycin inhibitor was used.

AKT (serine 473) = experiment: AKT phosphorylation in the melanoma cell model system; assay type: cell-based; settings: BEZ235
[2] = test system: BRAFV600E heterozygous cell lines (MALME-3M, SKMEL-3, and SKMEL-5); experiment: Fold MHC class I induction averaged over BRAFV600E heterozygous cell lines; settings: MFI over vehicle (DMSO) alone
Description: as §1

[3] = test system: BRAFV600E homozygous cell lines (A375, HT-144, and SKMEL-28); experiment: Fold MHC class I induction averaged over BRAFV600E homozygous cell lines; settings: MFI over vehicle (DMSO) alone
Description: The y-axis represents average MFI for at least three independent experiments except those for MeWo and SKMEL-5 which are the average of two independent experiments. […] Fold induction of cell surface MHC class I was calculated by dividing averaged MFI values for cells treated as indicated along the x-axis by averaged MFI values of cells treated with vehicle (DMSO) alone. […] MHC class I and class II levels were assessed as in part A.

[4] = test system: SKMEL-2 (BRAF codon 600 wild-type) cells; experiment: Cell surface MHC by flow cytometry in SKMEL-2 cells after IFN-γ
Description: Values represent the average mean fluorescence intensity (MFI) for three independent experiments and error bars represent the SEM. […] Control cells were treated only with vehicle (DMSO). […] Error bars represent SEM from at least 3 independent experiments.

[5] = A375 cells, sorafenib 10 μM prior to IFN-γ 2000 U/ml, not statistically significant (ANOVA)

Q: How did the “induction of MHCI molecules by IFN-γ” value (A375 melanoma cells; [5]) turn out when `CNC(=O)c1cc(Oc2ccc(NC(=O)Nc3ccc(Cl)c(C(F)(F)F)c3)cc2)ccn1` [sorafenib] was run?
A: enhanced the induction of MHCI molecules

Q: And the “induction of the MHCII molecule HLA-DR by IFN-γ” value (A375 melanoma cells; [5])?
A: decreased the induction of the MHCII molecule HLA-DR

Q: What does the source list for `CCCS(=O)(=O)Nc1ccc(F)c(C(=O)c2c[nH]c3ncc(Cl)cc23)c1F` [PLX4720]?
A: levels of ERK phosphorylation [1]: reduced levels of ERK phosphorylation; induction of MHCI molecules by IFN-γ (A375 melanoma cells; A375 cells, 10 μM PLX4720 60 minutes prior to IFN-γ (10 U/ml), 72 hours): enhanced the induction of MHCI molecules by IFN-γ

Q: `CCCS(=O)(=O)Nc1ccc(F)c(C(=O)c2c[nH]c3ncc(-c4ccc(Cl)cc4)cc23)c1F` [vemurafenib] was tested. Which “induction of MHCI molecules by IFN-γ” value (SKMEL-3 cells) did it give?
A: no effect

Q: What about the “induction of MHCII molecules by IFN-γ” value (SKMEL-3 cells) of the same molecule?
A: no effect

Q: What about the “time after the addition of IFN-γ at which the effect on CIITA mRNA was most pronounced” value (CIITA mRNA) of the same molecule?
A: 48 h

Q: And the “induction of MHCI molecules by IFN-γ” value (MALME-3M cells)?
A: no effect

Q: What about the “induction of MHCII molecules by IFN-γ” value (MALME-3M cells) of the same molecule?
A: no effect

Q: And the “induction of MHCI molecules by IFN-γ” value (SKMEL-5 cells)?
A: no effect

Q: What about the “induction of MHCII molecules by IFN-γ” value (SKMEL-5 cells) of the same molecule?
A: no effect

Q: With `Cn1c(=O)n(-c2ccc(C(C)(C)C#N)cc2)c2c3cc(-c4cnc5ccccc5c4)ccc3ncc21` [BEZ235] as the molecule, how does the “induction of MHC molecules by IFN-γ” value (melanoma cell lines) read?
A: did not enhance the induction of MHC molecules by IFN-γ, rather, it attenuated MHC induction in some of the cell lines examined

Q: And the “phosphorylation of AKT (serine 473)” value (AKT (serine 473))?
A: reduced the phosphorylation of AKT (serine 473)

B1: IFN-γ: a type II interferon, cytokine, potent inducer of MHC expression (protein, UniProt P01579 24-161, looked up)
Interferon gamma: QDPYVKEAENLKKYFNAGHSDVADNGTLFLGILKNWKEESDRKIMQSQIVSFYFKLFKNFKDDQSIQKSVETIKEDMNVKFFNSNKKKRDDFEKLTNYSVTDLNVQRKAIHELIQVMAELSPAAKTGKRKRSQMLFRG
Q: With B1 as the molecule, how does the “fold increase of MHCI levels by IFN-γ” value [2] read?
A: around four

Q: And the “fold increase of MHCI levels by IFN-γ” value [3]?
A: around four

Q: What about the “MHCI cell surface expression” value (A375 melanoma cells; A375 cells treated with IFN-γ alone, flow cytometry) of the same molecule?
A: lead to an induction of MHCI cell surface expression

Q: What about the “cell surface MHCI, MHCII and B2M protein levels” value [4] of the same molecule?
A: increases in cell surface MHCI, MHCII and B2M protein levels
